These results are taken from US4318916A, “Antibiotic PS-5 and derivatives having β-lactamase inhibitory activity and production thereof” (Sanraku-Ocean Co., Ltd., priority 1977, dated 1982).

What all share (assay type): cell-based
The test system of test [1] is Proteus vulgaris P-5. The test is described as follows: Potentiation disc assay with cephaloridine (Table 10). The conditions noted are these: for zone of inhibition at 625 µg/mL / zone of inhibition at 2500 µg/mL / zone of inhibition at 10000 µg/mL: P5, 18 h, read-out: Inhibition zone Without CER; for Potentiation of the antimicrobial activity of cephaloridine: disc assay, Table 10; for Inhibition zone With CER: 50 μg/ml cephaloridine in agar. The procedure: (A) Ten milliliters of molten nutrient agar containing 50 μg/ml of penicillin G or cephaloridine, 0.8% of Kyokuto Nutrient Broth Powder and 1.0% of Difco Bacto-Agar (pH 7.0) were seeded with the beta-lactam-resistant, beta-lactamase-producing microorganisms indicated in Tables 9 and 10, and poured in a 9-cm Petri dish to provide the bio-assay agar plate. On this assay plate, 8-mm pulp discs containing 25 μl each of antibiotic PS-5 solutions at the indicated concentrations were placed and incubated at 35° C. for 18 hours before reading the inhibition zones. The control assay plate was similarly prepared without penicillin G nor cephaloridine. As reference antibiotics, penicillin G, ampicillin, oxacillin and cefazolin were disc-assayed under the same conditions.

Test [2] concerns Bacillus subtilis ATCC 6633. The test is described as follows: MIC by broth dilution (Table 8). As to conditions: ATCC6633, 20 h; Bacillus subtilis ATCC 6633; read-out: Minimum inhibitory concentration. The procedure:
(§1) The MIC values of antibiotic PS-5 sodium salt were determined on various pathogenic microorganisms including resistant strains by the broth dilution method utilizing the BRAIN HEART INFUSION BROTH `Eiken` (EIKEN CHEMICAL CO., LTD.).
(§2) The antibiotic PS-5 sodium salt was dissolved in BRAIN HEART INFUSION BROTH `Eiken` (EIKEN CHEMICAL CO., LTD.) (pH 7.0) at concentration in the range of 5-50 μg/ml, from which appropriate dilution series were made in the same liquid medium. The microorganisms listed in Table 8 were cultivated for 18 hours in BRAIN HEART INFUSION BROTH `Eiken` at 28° C. and inoculated into the said dilution series of antibiotic PS-5 at a final inoculum size of 1×10^5 cells/ml. The cultures were allowed to stand at 35° C. for 20 hours, and then the growth of the microorganisms was read at each dilution of antibiotic PS-5. The minimum inhibitory concentration (MIC) represents the smallest concentration of the antibiotic PS-5 (sodium salt) where no propagation of the relevant microorganism was visually confirmed. As the controls, two known beta-lactam antibiotics, cephaloridine and cefoxitin were dissolved in brain heart infustion broth at pH 7.0 at concentrations ranging from 1 μg/ml to 100 μ g/ml and then diluted to make several dilution series in the above mentioned liquid medium. These samples were treated as described above for the MIC determinations.

Test [3] deals with Staphylococcus aureus Smith. In words: MIC by broth dilution (Table 8). As to conditions: 20 h; Staphylococcus aureus Smith; PS-5 as sodium salt; read-out: Minimum inhibitory concentration. As for the experimental part:
as §1, §2

The subject of test [4] is Streptococcus pyogenes NY-5. In words: MIC by broth dilution (Table 8). As to conditions: NY5, 20 h; Streptococcus pyogenes NY-5; 10% horse blood supplemented into the medium; read-out: Minimum inhibitory concentration. The procedure:
as §1, §2
A general note: In broth dilution the organism is exposed to a series of concentrations in liquid medium.

The test system of test [5] is Staphylococcus aureus EDA 209 P. In words: MIC by broth dilution (Table 8). The conditions noted are these: EDA209P, 20 h; Staphylococcus aureus EDA 209 P; PS-5 as sodium salt; read-out: Minimum inhibitory concentration. As for the experimental part:
as §1, §2

In test [6] the test system is Diplococcus pneumoniae Type III. In words: MIC by broth dilution (Table 8). As to conditions: Streptococcus pneumoniae, 20 h; Diplococcus pneumoniae Type III; 10% horse blood supplemented into the medium; read-out: Minimum inhibitory concentration. As for the experimental part: as §1, §2
For test [7], the system named is Staphylococcus aureus Bx-1633. In words: MIC by broth dilution (Table 8). The conditions noted are these: BX1633, 20 h; Staphylococcus aureus Bx-1633; PS-5 as sodium salt; read-out: Minimum inhibitory concentration. As for the experimental part: as §1, §2
Test [8] deals with Enterobacter cloacae E-16. In words: MIC by broth dilution (Table 8). As to conditions: E16, 20 h, betalactamase producer, read-out: Minimum inhibitory concentration. The procedure: as §1
as §2, with “determinations. In addition to the MIC values of antibiotic PS-5, those of cephaloridine and cefoxitin are included for reference.” for “determinations.”

For a further test, the system named is Citrobacter freundii E-9. In words: MIC by broth dilution (Table 8). The conditions noted are these: E9, 20 h; Citrobacter freundii E-9; betalactamase producer; read-out: Minimum inhibitory concentration. As for the experimental part:
as §1
as §2, with “determinations. In addition to the MIC values of antibiotic PS-5, those of cephaloridine and cefoxitin are included for reference.” for “determinations.”

A further test deals with Proteus sp. P-22. The test is described as follows: MIC by broth dilution (Table 8). The conditions noted are these: 20 h; Proteus sp. P-22; read-out: Minimum inhibitory concentration. The procedure: as §1
as §2, with “determinations. In addition to the MIC values of antibiotic PS-5, those of cephaloridine and cefoxitin are included for reference.” for “determinations.”

The next test relates to Enterobacter sp. E-8. In words: MIC by broth dilution (Table 8). The conditions noted are these: SP.E8, 20 h; Enterobacter sp. E-8; betalactamase producer; read-out: Minimum inhibitory concentration. The procedure:
as §1
as §2, with “determinations. In addition to the MIC values of antibiotic PS-5, those of cephaloridine and cefoxitin are included for reference.” for “determinations.”

The test system of test [9] is Enterobacter aerogenes E-19. The test is described as follows: MIC by broth dilution (Table 8). The conditions noted are these: Klebsiella aerogenes, E19, 20 h, betalactamase producer, read-out: Minimum inhibitory concentration. As for the experimental part:
as §1
as §2, with “determinations. In addition to the MIC values of antibiotic PS-5, those of cephaloridine and cefoxitin are included for reference.” for “determinations.”

The test system of a further test is Serratia marcescens S-18. In words: MIC by broth dilution (Table 8). The conditions noted are these: S18, 20 h, betalactamase producer, read-out: Minimum inhibitory concentration. As for the experimental part: as §1
as §2, with “determinations. In addition to the MIC values of antibiotic PS-5, those of cephaloridine and cefoxitin are included for reference.” for “determinations.”

In another test the test system is Providencia sp. P-8. The test is described as follows: MIC by broth dilution (Table 8). The conditions noted are these: SP.P8, 20 h, resistant to kanamycin, gentamicin and tobramycin, read-out: Minimum inhibitory concentration. The procedure: as §1
as §2, with “determinations. In addition to the MIC values of antibiotic PS-5, those of cephaloridine and cefoxitin are included for reference.” for “determinations.”

Test [10] deals with Staphylococcus aureus Russell. The test is described as follows: MIC by broth dilution (Table 8). As to conditions: 20 h; Staphylococcus aureus Russell; PS-5 as sodium salt; read-out: Minimum inhibitory concentration. As for the experimental part: as §1
as §2, with “determinations. In addition to the MIC values of antibiotic PS-5, those of cephaloridine and cefoxitin are included for reference.” for “determinations.”

Test [11] concerns Proteus vulgaris P-5. The test is described as follows: MIC by broth dilution (Table 8). As to conditions: P5, 20 h, betalactamase producer, read-out: Minimum inhibitory concentration. As for the experimental part: as §1
as §2, with “determinations. In addition to the MIC values of antibiotic PS-5, those of cephaloridine and cefoxitin are included for reference.” for “determinations.”

For a further test, the system named is Escherichia coli K 12. In words: MIC by broth dilution (Table 8). As to conditions: K12, 20 h; Escherichia coli K 12; read-out: Minimum inhibitory concentration. The procedure: as §1
as §2, with “determinations. In addition to the MIC values of antibiotic PS-5, those of cephaloridine and cefoxitin are included for reference.” for “determinations.”

Test [12] relates to Klebsiella pneumoniae K-2. The test is described as follows: MIC by broth dilution (Table 8). The conditions noted are these: K2, 20 h, betalactamase producer, read-out: Minimum inhibitory concentration. As for the experimental part: as §1
as §2, with “determinations. In addition to the MIC values of antibiotic PS-5, those of cephaloridine and cefoxitin are included for reference.” for “determinations.”

For a further test, the system named is Proteus mirabilis P-6. In words: MIC by broth dilution (Table 8). The conditions noted are these: P6, 20 h, resistant to kanamycin, gentamicin and tobramycin, read-out: Minimum inhibitory concentration. The procedure: as §1
as §2, with “determinations. In addition to the MIC values of antibiotic PS-5, those of cephaloridine and cefoxitin are included for reference.” for “determinations.”

Test [13] concerns Alcaligenes faecalis B-326. In words: MIC by broth dilution (Table 8). As to conditions: B326, 20 h; Alcaligenes faecalis B-326; read-out: Minimum inhibitory concentration. The procedure: as §1
as §2, with “determinations. In addition to the MIC values of antibiotic PS-5, those of cephaloridine and cefoxitin are included for reference.” for “determinations.”

The next test has as its system Proteus rettgeri P-7. In words: MIC by broth dilution (Table 8). As to conditions: Providencia rettgeri, P7, 20 h, resistant to gentamicin and tobramycin, read-out: Minimum inhibitory concentration. The procedure:
as §1
as §2, with “determinations. In addition to the MIC values of antibiotic PS-5, those of cephaloridine and cefoxitin are included for reference.” for “determinations.”

The mark [14] stands for this setting: Proteus vulgaris P-5, reference antibiotic 625 μg/ml.
[15] abbreviates: Proteus vulgaris P-5, reference antibiotic 2,500 μg/ml.
Setting [16] is: Proteus vulgaris P-5, reference antibiotic 10,000 μg/ml.

In brackets after ≈: the same amount, converted by molar mass. Read-outs that look alike come from different tables or passages of the source. A value given as a limit tells only on which side of the number the result lay.

For `Cc1nnc(SCC2=C(C(=O)O)N3C(=O)[C@@H](NC(=O)Cn4cnnn4)[C@H]3SC2)s1` [Cefazolin, cefazolin], in the test on Proteus vulgaris P-5 [1] (setting [14]), the zone of inhibition at 625 µg/mL was determined as 0 mm and the “Inhibition zone With CER” value is listed as 0 mm. Besides, in the test on Proteus vulgaris P-5 [1] (setting [15]), the zone of inhibition at 2500 µg/mL was 0 mm and the “Inhibition zone With CER” value was determined as 0 mm. Further, in the test on Proteus vulgaris P-5 [1] (setting [16]), the zone of inhibition at 10000 µg/mL turned out to be 14.6 mm and the “Inhibition zone With CER” value was 12.0 mm. Also, in the test with Proteus vulgaris P-5 [1] (Proteus vulgaris P-5), the “Potentiation of the antimicrobial activity of cephaloridine” value (“Potentiation” for short) is on record as “could not increase the antimicrobial activity of cephaloridine”.
As for `CO[C@@]1(NC(=O)Cc2cccs2)C(=O)N2C(C(=O)O)=C(COC(N)=O)CS[C@@H]21` [Cefoxitin, cefoxitin], the MIC in test [2] was determined as 1.25 mg/L (≈ 2.92 µM); in test [3] it was 2.5 mg/L; in [4], 0.63 mg/L (≈ 1.47 µM); in test [5], 1.25 mg/L; in test [6], 1.25 mg/L (≈ 2.92 µM); in test [7] it was 1.25 mg/L. Besides, the MIC was > 100 mg/L in test [8]; > 100 mg/L with Citrobacter freundii E-9; 12.5 mg/L (≈ 29.2 µM) in the test with Proteus sp. P-22; 12.5 mg/L (≈ 29.2 µM) in the test with Enterobacter sp. E-8; > 100 mg/L in [9]; 50 mg/L (≈ 117 µM) in the test on Serratia marcescens S-18. Moreover, the MIC in the test on Providencia sp. P-8 turned out to be 25 mg/L (≈ 58.5 µM); in [10] it was 2.5 mg/L; with Proteus vulgaris P-5 [11] it was 12.5 mg/L (≈ 29.2 µM); in the test with Escherichia coli K 12 it was 2.5 mg/L (≈ 5.85 µM); in [12], 6.25 mg/L (≈ 14.6 µM); in the test on Proteus mirabilis P-6, 12.5 mg/L (≈ 29.2 µM). In addition, the MIC in test [13] came to 1.56 mg/L (≈ 3.65 µM); in the test with Proteus rettgeri P-7 it was 6.25 mg/L (≈ 14.6 µM).
Take `Cc1onc(-c2ccccc2)c1C(=O)N[C@@H]1C(=O)N2[C@@H]1SC(C)(C)[C@@H]2C(=O)O` [Oxacillin, oxacillin]: the “Potentiation” value in the test with Proteus vulgaris P-5 [1] (Proteus vulgaris P-5) is given as “could not increase the antimicrobial activity of cephaloridine”. For the same compound, the “Inhibition zone With CER” value in the test with Proteus vulgaris P-5 [1] (setting [14]) amounted to 0 mm. The “Inhibition zone With CER” value in the test on Proteus vulgaris P-5 [1] (setting [15]) turned out to be 0 mm. In the test on Proteus vulgaris P-5 [1] (setting [16]), the “Inhibition zone With CER” value was determined as 0 mm. Also, in the test on Proteus vulgaris P-5 [1] (Proteus vulgaris), the zone of inhibition at 625 µg/mL worked out at 0 mm, the zone of inhibition at 2500 µg/mL was determined as 0 mm and the zone of inhibition at 10000 µg/mL was 0 mm.
As to `CC1(C)S[C@@H]2[C@H](NC(=O)Cc3ccccc3)C(=O)N2[C@H]1C(=O)O` [Penicillin G, penicillin G], the “Potentiation” value in the test with Proteus vulgaris P-5 [1] (Proteus vulgaris P-5) was “could not increase the antimicrobial activity of cephaloridine”. Moreover, the “Inhibition zone With CER” value in the test on Proteus vulgaris P-5 [1] (setting [14]) is listed as 0 mm; with Proteus vulgaris P-5 [1] (setting [15]), 0 mm; with Proteus vulgaris P-5 [1] (setting [16]) it was 14.5 mm. Also, the zone of inhibition at 625 µg/mL in the test on Proteus vulgaris P-5 [1] (Proteus vulgaris) came to 0 mm. Further, the zone of inhibition at 2500 µg/mL in the test on Proteus vulgaris P-5 [1] (Proteus vulgaris) stood at 0 mm. Moreover, the zone of inhibition at 10000 µg/mL with Proteus vulgaris P-5 [1] (Proteus vulgaris) amounted to 14.9 mm.
